This passage reports Activity and LD50 results from ChEMBL document CHEMBL3244078, “Synthesis and antihypertensive activity of novel 3-hydrazino-5-phenyl-1,2,4-triazines” (J Med Chem, 1979).

In data set [1] the test system is Rattus norvegicus. Briefly: Antihypertensive activity in spontaneously hypertensive rat assessed as drop in mean systolic blood pressure at 100 mg/kg, po after 4 hrs by tail cuff method relative to vehicle-treated control. Format: functional, Artery.
Data set [2] concerns Rattus norvegicus. Put plainly: Antihypertensive activity in spontaneously hypertensive rat assessed as drop in mean systolic blood pressure at 100 mg/kg, po after 24 hrs by tail cuff method relative to vehicle-treated control. The class given is functional, Artery.
The test system of data set [3] is Rattus norvegicus. Put plainly: Antihypertensive activity in spontaneously hypertensive rat assessed as drop in mean systolic blood pressure at 100 mg/kg, po followed by second dosing at 24 hrs measured after 28 hrs by tail cuff method relative to vehicle-treated control. Format: functional, Artery.
For data set [4], the system named is Rattus norvegicus. Put plainly: Antihypertensive activity in spontaneously hypertensive rat assessed as drop in mean systolic blood pressure at 100 mg/kg, po followed by second dosing at 24 hrs measured after 48 hrs by tail cuff method relative to vehicle-treated control. Format: functional, Artery.
Data set [5] can be described thus: Toxicity in ip dosed CF-1 mouse after 48 hrs. The note with it: in vivo.

Activity calls are given as the source filed them. The rule behind the calls is not given here. Bounds are passed on as bounds.

Turning to `NNc1nncc(-c2cccc(Cl)c2)n1`, the Activity in the data set with Rattus norvegicus [1] was 0 mmHg; in the data set on Rattus norvegicus [2] it was 0 mmHg; in the data set on Rattus norvegicus [3], 55 mmHg; in the data set with Rattus norvegicus [4], 51 mmHg. Further, the LD50 at 48 h in data set [5] amounted to 237 mg/kg.

For `CNNc1nncc(-c2cccc(Cl)c2)n1`, the Activity in the data set with Rattus norvegicus [1] was determined as 28 mmHg; with Rattus norvegicus [2], 35 mmHg; in the data set on Rattus norvegicus [3], 63 mmHg; in the data set with Rattus norvegicus [4], 51 mmHg. Further, the LD50 at 48 h in data set [5] is 237 mg/kg.

With `Cc1ccc(-c2cnnc(NNC(=O)C34CC5CC(CC(C5)C3)C4)n2)cc1.Cl`, the Activity is recorded as 32 mmHg with Rattus norvegicus [1], 0 mmHg with Rattus norvegicus [2], 24 mmHg in the data set with Rattus norvegicus [3] and 30 mmHg in the data set with Rattus norvegicus [4]. In addition, the LD50 at 48 h in data set [5] was 216 mg/kg.

Take `Cl.O=C(Cc1ccccc1)NNc1nncc(-c2ccccc2)n1`: the result in the data set with Rattus norvegicus [1] (Artery), in the data set with Rattus norvegicus [2] (Artery), in the data set on Rattus norvegicus [3] (Artery) and with Rattus norvegicus [4] (Artery) was inactive. This molecule also returned an LD50 at 48 h in data set [5] of 237 mg/kg.

With `NNc1nncc(-c2ccc(Cl)cc2)n1`, the Activity turned out to be 52 mmHg with Rattus norvegicus [1], 61 mmHg in the data set on Rattus norvegicus [2], 90 mmHg in the data set on Rattus norvegicus [3] and 87 mmHg in the data set with Rattus norvegicus [4]. The molecule also returned an LD50 at 48 h in data set [5] of 237 mg/kg.

Consider `CC(=O)NNc1nncc(-c2ccc(C)cc2)n1.O`, for which the result in the data set with Rattus norvegicus [1] (Artery), with Rattus norvegicus [2] (Artery), in the data set with Rattus norvegicus [3] (Artery) and in the data set on Rattus norvegicus [4] (Artery) was inactive. Moreover, the LD50 at 48 h in data set [5] is greater than 300 mg/kg.

In the case of `O=C(NNc1nncc(-c2ccccc2)n1)C1CCCCC1`, the Activity in the data set with Rattus norvegicus [1] amounted to 24 mmHg; with Rattus norvegicus [2], 51 mmHg; with Rattus norvegicus [3] it was 76 mmHg; in the data set on Rattus norvegicus [4], 79 mmHg. For the same molecule, the LD50 at 48 h in data set [5] amounted to 237 mg/kg.

For the molecule `O=C(CCCl)NNc1nncc(-c2ccc(Cl)cc2)n1`, the result in the data set on Rattus norvegicus [1] (Artery), in the data set on Rattus norvegicus [2] (Artery), in the data set on Rattus norvegicus [3] (Artery) and with Rattus norvegicus [4] (Artery) was inactive. Besides, the LD50 at 48 h in data set [5] was 237 mg/kg.

Take `CCC(=O)NNc1nncc(-c2ccc(Cl)cc2)n1`: the Activity is given as 47 mmHg in the data set with Rattus norvegicus [1], 79 mmHg in the data set on Rattus norvegicus [2], 107 mmHg in the data set on Rattus norvegicus [3] and 111 mmHg with Rattus norvegicus [4]. For the same molecule, the median lethal dose (LD50) at 48 h in data set [5] was found to be 237 mg/kg.

`O=C(NNc1nncc(-c2ccccc2)n1)C(F)(F)F`: the Activity in the data set on Rattus norvegicus [1] amounted to 51 mmHg; with Rattus norvegicus [2], 29 mmHg; with Rattus norvegicus [3], 70 mmHg; with Rattus norvegicus [4], 88 mmHg. Further, the LD50 at 48 h in data set [5] was 178 mg/kg.

Regarding `O=C(NNc1nncc(-c2ccccc2)n1)c1ccccc1`, the outcome with Rattus norvegicus [1] (Artery), in the data set on Rattus norvegicus [2] (Artery), in the data set on Rattus norvegicus [3] (Artery) and in the data set on Rattus norvegicus [4] (Artery) was inactive. For the same molecule, the LD50 at 48 h in data set [5] was greater than 300 mg/kg.

For the molecule `NNc1nncc(-c2ccc(Cl)c(Cl)c2)n1`, the result in the data set with Rattus norvegicus [1] (Artery), in the data set with Rattus norvegicus [2] (Artery), in the data set with Rattus norvegicus [3] (Artery) and in the data set with Rattus norvegicus [4] (Artery) was inactive. Also, the 50% lethal dose (LD50) at 48 h in data set [5] is greater than 300 mg/kg.

In the case of `CC(=O)NNc1nncc(-c2ccc(Cl)c(Cl)c2)n1`, the result in the data set on Rattus norvegicus [1] (Artery), in the data set on Rattus norvegicus [2] (Artery), with Rattus norvegicus [3] (Artery) and with Rattus norvegicus [4] (Artery) was inactive. In data set [5], the LD50 at 48 h is 237 mg/kg.

With `CNNc1nncc(-c2ccc(Cl)cc2)n1`, the Activity amounted to 0 mmHg with Rattus norvegicus [1], 12 mmHg in the data set on Rattus norvegicus [2], 39 mmHg in the data set with Rattus norvegicus [3] and 53 mmHg in the data set with Rattus norvegicus [4]. For the same molecule, the LD50 at 48 h in data set [5] is 316 mg/kg.

Regarding `CCCCCC(=O)NNc1nncc(-c2ccccc2)n1.Cl`, the Activity in the data set with Rattus norvegicus [1] is recorded as 53 mmHg; in the data set with Rattus norvegicus [2], 53 mmHg; in the data set on Rattus norvegicus [3], 81 mmHg; with Rattus norvegicus [4], 68 mmHg. Besides, in data set [5], the LD50 at 48 h was 178 mg/kg.

For `CNNc1nncc(-c2ccc(C)cc2)n1`, the outcome with Rattus norvegicus [1] (Artery), with Rattus norvegicus [2] (Artery), with Rattus norvegicus [3] (Artery) and in the data set on Rattus norvegicus [4] (Artery) was inactive. This molecule yielded an LD50 at 48 h in data set [5] of 316 mg/kg.

Turning to `O=C(CCl)NNc1nncc(-c2ccccc2)n1`, the Activity in the data set on Rattus norvegicus [1] stood at 63 mmHg; in the data set on Rattus norvegicus [2], 74 mmHg; in the data set with Rattus norvegicus [3] it was 101 mmHg; in the data set on Rattus norvegicus [4], 55 mmHg. Besides, the LD50 at 48 h in data set [5] amounted to 100 mg/kg.

With `O=C(NNc1nncc(-c2ccc(Cl)cc2)n1)C(F)(F)F`, the Activity with Rattus norvegicus [1] worked out at 30 mmHg; with Rattus norvegicus [2] it was 46 mmHg; with Rattus norvegicus [3], 92 mmHg; with Rattus norvegicus [4] it was 74 mmHg. Besides, in data set [5], the LD50 at 48 h worked out at 237 mg/kg.

As to `O=C(NNc1nncc(-c2ccccc2)n1)C(Cl)Cl`, the Activity is recorded as 33 mmHg in the data set with Rattus norvegicus [1], 54 mmHg in the data set on Rattus norvegicus [2], 106 mmHg with Rattus norvegicus [3] and 80 mmHg in the data set on Rattus norvegicus [4]. The LD50 at 48 h in data set [5] is 178 mg/kg.

For `NNc1nncc(-c2cccc(C(F)(F)F)c2)n1`, the Activity in the data set on Rattus norvegicus [1] is on record as 26 mmHg; in the data set with Rattus norvegicus [2], 0 mmHg; with Rattus norvegicus [3], 48 mmHg; with Rattus norvegicus [4] it was 40 mmHg. In data set [5], this molecule displayed an LD50 at 48 h of 316 mg/kg.

As usually defined, the LD50 is the dose expected to kill half of the subjects tested.
